# Measured values: US7235679B2, “Crystals of a vitamin D derivative and a method for the preparation thereof” (Chugai Seiyaku Kabushiki Kaisha, priority 1996, dated 2007)
# Assay: Stability test of ED-71: purity measurement using reverse phase HPLC
# Type: physicochemical
# Settings: for Purity Measurement Using Reverse Phase HPLC, ED-71 peak / Purity Measurement Using Reverse Phase HPLC, Other peaks / Purity Measurement Using Reverse Phase HPLC, Pre Form peak: 265 nm
# Description: Amorphous and crystalline ED-71 compounds were tested for stability at 10, 25 and […]. To estimate the stability, HPLC quantitative assay and absorbance and purity measurements were utilized. The purity was expressed as peak area ratio in percentage in HPLC (% P.A.R.). The test was carried out by using the following procedures:
# About 2 mg portions of each of the amorphous and crystalline samples are precisely weighed into transparent 10 ml test tubes each having screw cap, individually.
# The test tubes are purged with argon using a vacuum desiccator and a glove box. This purging procedure is not applied to the test tubes indicated as “1 M (air)” in the tables below.
# The test tubes in groups are fixed in thermostatic baths which are respectively controlled at the above temperatures and allowed to stand in the dark. After one (1 W) or two (2 W) weeks or one month (1 M), the test tubes are removed from the baths and subjected to the following assay and measurements:
# HPLC is carried out using 25 μl of the sample solution as prepared in “HPLC quantitative assay” above. • HPLC conditions used: • Column: Inertsil ODS-2 (5×250 mm) • Mobile phase: acetonitrile/water mixture (55/45) • Flow rate: 1 ml/min • Detection: at UV 265 and 220 nm.
smiles,measurement,setting,value
"C=C1/C(=C\C=C2/CCC[C@]3(C)[C@@H]([C@H](C)CCCC(C)(C)O)CC[C@@H]23)C[C@@H](O)[C@@H](OCCCO)[C@@H]1O [Crys., 1α,25-dihydroxy-2β-(3-hydroxypropoxy)vitamin D3]","220 nm (%), Other peaks","10° C., time 0",2.04%
same,"220 nm (%), Pre Form peak","10° C., time 0",0.52%
same,"220 nm (%), ED-71 peak","25° C., 1 W, argon, dark",98.17%
same,"220 nm (%), Other peaks","25° C., 1 W, argon, dark",1.40%
same,"220 nm (%), Pre Form peak","25° C., 1 W, argon, dark",0.44%
same,"220 nm (%), ED-71 peak","25° C., 2 W, argon, dark",97.56%
same,"220 nm (%), Other peaks","25° C., 2 W, argon, dark",1.43%
same,"220 nm (%), Pre Form peak","25° C., 2 W, argon, dark",1.01%
same,"220 nm (%), ED-71 peak","25° C., time 0",97.44%
same,"220 nm (%), Other peaks","25° C., time 0",2.04%
same,"220 nm (%), Pre Form peak","25° C., time 0",0.52%
same,"220 nm (%), ED-71 peak","40° C., 1 W, argon, dark",98.18%
same,"220 nm (%), Other peaks","40° C., 1 W, argon, dark",1.35%
same,"220 nm (%), Pre Form peak","40° C., 1 W, argon, dark",0.47%
same,"220 nm (%), ED-71 peak","40° C., 2 W, argon, dark",97.65%
same,"220 nm (%), Other peaks","40° C., 2 W, argon, dark",1.33%
same,"220 nm (%), Pre Form peak","40° C., 2 W, argon, dark",1.02%
same,"220 nm (%), ED-71 peak","40° C., time 0",97.44%
same,"220 nm (%), Other peaks","40° C., time 0",2.04%
same,"220 nm (%), Pre Form peak","40° C., time 0",0.52%
same,"Purity Measurement Using Reverse Phase HPLC, ED-71 peak","10° C., 1 M (air), dark",98.72 % P.A.R
same,"Purity Measurement Using Reverse Phase HPLC, Other peaks","10° C., 1 M (air), dark",0.42 % P.A.R
same,"Purity Measurement Using Reverse Phase HPLC, Pre Form peak","10° C., 1 M (air), dark",0.86 % P.A.R
same,"Purity Measurement Using Reverse Phase HPLC, ED-71 peak","10° C., 1 M, argon, dark",98.77 % P.A.R
same,"Purity Measurement Using Reverse Phase HPLC, Other peaks","10° C., 1 M, argon, dark",0.37 % P.A.R
same,"Purity Measurement Using Reverse Phase HPLC, Pre Form peak","10° C., 1 M, argon, dark",0.86 % P.A.R
same,"Purity Measurement Using Reverse Phase HPLC, ED-71 peak","10° C., 2 W, argon, dark",98.84 % P.A.R
same,"Purity Measurement Using Reverse Phase HPLC, Other peaks","10° C., 2 W, argon, dark",0.32 % P.A.R
same,"Purity Measurement Using Reverse Phase HPLC, Pre Form peak","10° C., 2 W, argon, dark",0.83 % P.A.R
same,"Purity Measurement Using Reverse Phase HPLC, ED-71 peak","10° C., time 0",99.04 % P.A.R
same,"Purity Measurement Using Reverse Phase HPLC, Other peaks","10° C., time 0",0.60 % P.A.R
same,"Purity Measurement Using Reverse Phase HPLC, Pre Form peak","10° C., time 0",0.36 % P.A.R
same,"Purity Measurement Using Reverse Phase HPLC, ED-71 peak","25° C., 1 W, argon, dark",99.35 % P.A.R
same,"Purity Measurement Using Reverse Phase HPLC, Other peaks","25° C., 1 W, argon, dark",0.38 % P.A.R
same,"Purity Measurement Using Reverse Phase HPLC, Pre Form peak","25° C., 1 W, argon, dark",0.28 % P.A.R
same,"Purity Measurement Using Reverse Phase HPLC, ED-71 peak","25° C., 2 W, argon, dark",98.78 % P.A.R
same,"Purity Measurement Using Reverse Phase HPLC, Other peaks","25° C., 2 W, argon, dark",0.37 % P.A.R
same,"Purity Measurement Using Reverse Phase HPLC, Pre Form peak","25° C., 2 W, argon, dark",0.85 % P.A.R
same,"Purity Measurement Using Reverse Phase HPLC, ED-71 peak","25° C., time 0",99.04 % P.A.R
same,"Purity Measurement Using Reverse Phase HPLC, Other peaks","25° C., time 0",0.60 % P.A.R
same,"Purity Measurement Using Reverse Phase HPLC, Pre Form peak","25° C., time 0",0.36 % P.A.R
same,"Purity Measurement Using Reverse Phase HPLC, ED-71 peak","40° C., 1 W, argon, dark",99.40 % P.A.R
same,"Purity Measurement Using Reverse Phase HPLC, Other peaks","40° C., 1 W, argon, dark",0.31 % P.A.R
same,"Purity Measurement Using Reverse Phase HPLC, Pre Form peak","40° C., 1 W, argon, dark",0.29 % P.A.R
same,"Purity Measurement Using Reverse Phase HPLC, ED-71 peak","40° C., 2 W, argon, dark",98.75 % P.A.R
same,"Purity Measurement Using Reverse Phase HPLC, Other peaks","40° C., 2 W, argon, dark",0.40 % P.A.R
same,"Purity Measurement Using Reverse Phase HPLC, Pre Form peak","40° C., 2 W, argon, dark",0.85 % P.A.R
same,"Purity Measurement Using Reverse Phase HPLC, ED-71 peak","40° C., time 0",99.04 % P.A.R
same,"Purity Measurement Using Reverse Phase HPLC, Other peaks","40° C., time 0",0.60 % P.A.R
same,"Purity Measurement Using Reverse Phase HPLC, Pre Form peak","40° C., time 0",0.36 % P.A.R
